Data as given in patent publication US20220089592A1, “IMIDAZO[1,2-A]PYRIDINYL DERIVATIVES AS IRAK4 INHIBITORS” (priority 2019, published 2022).
Counter-ions that a name gives are not always drawn.

Columns and labels:
IRAK4 [1] = biological target: T1, IRAK4 (Homo sapiens, UniProt Q9NWZ3); assay: 2-hour 10 μM ATP Biochemical Assay (MesoScale Detection format; IRAK4 phosphorylation of biotin labeled IRAK1 activation loop peptide); conditions: IRAK4 MSD BIOCHEMICAL (10 μM ATP) IC50 (μM), 1 nM IRAK4, 2 hours
T1 sequence (Q9NWZ3 1-460): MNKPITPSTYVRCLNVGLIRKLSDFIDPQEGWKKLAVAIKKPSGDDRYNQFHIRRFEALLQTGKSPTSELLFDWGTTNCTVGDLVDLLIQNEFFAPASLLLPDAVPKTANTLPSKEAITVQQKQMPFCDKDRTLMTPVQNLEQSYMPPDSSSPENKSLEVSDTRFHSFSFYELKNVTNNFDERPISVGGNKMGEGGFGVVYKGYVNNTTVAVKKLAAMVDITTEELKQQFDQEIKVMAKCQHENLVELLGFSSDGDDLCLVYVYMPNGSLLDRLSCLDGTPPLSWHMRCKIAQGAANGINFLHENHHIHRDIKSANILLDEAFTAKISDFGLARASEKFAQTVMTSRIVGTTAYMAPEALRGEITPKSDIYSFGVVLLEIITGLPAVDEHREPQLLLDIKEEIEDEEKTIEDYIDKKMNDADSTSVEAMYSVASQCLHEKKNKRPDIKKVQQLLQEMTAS
Outline: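 Kinase reaction run 2 h at 10 μM ATP with biotinylated IRAK1 activation-loop peptide, quenched with EDTA. Phospho-peptide captured on streptavidin MSD plates and detected with anti-phosphothreonine rabbit antibody plus Sulfo-Tag anti-rabbit electrochemiluminescence.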

IRAK4 [2] = biological target: T1, IRAK4; assay: 2-hour 1 mM ATP IRAK4 Biochemical assay (as above, but with 100 pM IRAK4 and 1 mM ATP); conditions: IRAK4 MSD BIOCHEMICAL (1 mM ATP) IC50 (μM), 100 pM IRAK4, 2 hours
Outline: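 Run with 100 pM IRAK4 and 1 mM ATP for 2 hours, quenched with EDTA pH 8. Phosphorylated biotinylated peptide captured on streptavidin MSD plates and detected with anti-phosphothreonine antibody plus Sulfo-Tag secondary by electrochemiluminescence.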

| IC50 (IRAK4 [1]) [µM] | IC50 (IRAK4 [2]) [µM] | Structure (SMILES) |
| --- | --- | --- |
| 0.001 | 0.003 | CCOc1nc2nc(CCCOC)cn2cc1NC(=O)c1cccc(C(F)F)n1 [Example 242, 6-(difluoromethyl)-N-(7-ethoxy-2-(3-methoxypropyl)imidazo[1,2-a]pyrimidin-6-yl)picolinamide] |
| 0.003 | 0.014 | CCOc1nc2nc(C3CC3)cn2cc1NC(=O)c1cccc(C(F)F)n1 [Example 243, N-(2-cyclopropyl-7-ethoxyimidazo[1,2-a]pyrimidin-6-yl)-6-(difluoromethyl)picolinamide] |
| 0.001 | 0.001 | CCOc1cc2nc(C3CCCC(=O)N3C)cn2cc1NC(=O)c1cccc(C(F)F)n1 (stereo not shown) [Example 246, 6-(difluoromethyl)-N-(7-ethoxy-2-(1-methyl-6-oxopiperidin-2-yl)imidazo[1,2-a]pyridin-6-yl)picolinamide] |
| 0.001 | 0.001 | CCOc1cc2nc(C3CCCC(OC)C3)cn2cc1NC(=O)c1cccc(C(F)F)n1 (stereo not shown) [Example 256, 6-(difluoromethyl)-N-(7-ethoxy-2-(3-methoxycyclohexyl)imidazo[1,2-a]pyridin-6-yl)picolinamide] |
| 0.006 | 0.013 | COc1cc(NC(=O)c2cccc(C(F)F)n2)cn2cc(C3CCOCC3)nc12 [Example 304, 6-(difluoromethyl)-N-(8-methoxy-2-(tetrahydro-2H-pyran-4-yl)imidazo[1,2-a]pyridin-6-yl)picolinamide] |
| 0.023 | 0.038 | O=C(Nc1cn2cc(C3CCOCC3)nc2cn1)c1cccc(C(F)F)n1 [Example 330, 6-(difluoromethyl)-N-(2-(tetrahydro-2H-pyran-4-yl)imidazo[1,2-a]pyrazin-6-yl)picolinamide] |
| 0.008 | 0.042 | O=C(Nc1ccc2nc(CC3CCOC3)cn2c1)c1cccc(C(F)F)n1 (stereo not shown) [Example 355, 6-(difluoromethyl)-N-(2-((tetrahydrofuran-3-yl)methyl)imidazo[1,2-a]pyridin-6-yl)picolinamide] |
| 0.015 | 0.033 | O=C(Nc1ccc2nc(C3CCOCC3)cn2c1)c1cccc(C(F)F)n1 [Example 356, 6-(difluoromethyl)-N-(2-(tetrahydro-2H-pyran-4-yl)imidazo[1,2-a]pyridin-6-yl)picolinamide] |
| 0.006 | 0.014 | CCOc1cc2nc(C(C)(C)C#N)cn2cc1NC(=O)c1coc(C(C)C)n1 [Example 358, N-(2-(2-cyanopropan-2-yl)-7-ethoxyimidazo[1,2-a]pyridin-6-yl)-2-isopropyloxazole-4-carboxamide] |
| 0.01 | 0.023 | CCOc1cc2nc(C(C)(C)C#N)cn2cc1NC(=O)c1coc(C(F)F)n1 [Example 359, N-(2-(2-cyanopropan-2-yl)-7-ethoxyimidazo[1,2-a]pyridin-6-yl)-2-(difluoromethyl)oxazole-4-carboxamide] |
| 0.006 | 0.005 | CCOc1cc2nc(C(C)(C)C#N)cn2cc1NC(=O)c1coc(C2CC2)n1 [Example 360, N-(2-(2-cyanopropan-2-yl)-7-ethoxyimidazo[1,2-a]pyridin-6-yl)-2-cyclopropyloxazole-4-carboxamide] |
| 0.002 | 0.01 | CCOc1cc2nc(C3CCOCC3)cn2cc1NC(=O)c1cccc(OC2CC2)n1 [Example 361, 6-cyclopropoxy-N-(7-ethoxy-2-(tetrahydro-2H-pyran-4-yl)imidazo[1,2-a]pyridin-6-yl)picolinamide] |
| 0.006 | 0.017 | CCOc1cc2nc(C3CCOCC3)cn2cc1NC(=O)c1cccc(OC(F)F)n1 [Example 362, 6-(difluoromethoxy)-N-(7-ethoxy-2-(tetrahydro-2H-pyran-4-yl)imidazo[1,2-a]pyridin-6-yl)picolinamide] |
| 0.004 | 0.013 | CCOc1cc2nc(C3CCOCC3)cn2cc1NC(=O)c1cccc(COC)n1 [Example 364, N-(7-ethoxy-2-(tetrahydro-2H-pyran-4-yl)imidazo[1,2-a]pyridin-6-yl)-6-(methoxymethyl)picolinamide] |
| 0.002 | 0.006 | CCOc1cc2nc(C3CCOCC3)cn2cc1NC(=O)c1cccc(C#N)n1 [Example 365, 6-cyano-N-(7-ethoxy-2-(tetrahydro-2H-pyran-4-yl)imidazo[1,2-a]pyridin-6-yl)picolinamide] |
| 0.003 | 0.004 | CCOc1cc2nc(C3CCOCC3)cn2cc1NC(=O)c1cccc(C2CC2)n1 [Example 366, 6-cyclopropyl-N-(7-ethoxy-2-(tetrahydro-2H-pyran-4-yl)imidazo[1,2-a]pyridin-6-yl)picolinamide] |
| 0.008 | 0.016 | CCOc1nc2nc(C3CCOCC3)cn2cc1NC(=O)c1cccc(OC)n1 [Example 368, N-(7-ethoxy-2-(tetrahydro-2H-pyran-4-yl)imidazo[1,2-a]pyrimidin-6-yl)-6-methoxypicolinamide] |
| 0.002 | 0.026 | CCOc1cc2nc(CC3CCOC3)cn2cc1NC(=O)c1ccc2c(n1)CCC2 (stereo not shown) [Example 369, N-(7-ethoxy-2-((tetrahydrofuran-3-yl)methyl)imidazo[1,2-a]pyridin-6-yl)-6,7-dihydro-5H-cyclopenta[b]pyridine-2-carboxamide] |
| 0.001 | 0.002 | CCOc1nc2nc(C3CCOCC3)cn2cc1NC(=O)c1cccc(C(F)F)n1 [Example 372, 6-(difluoromethyl)-N-(7-ethoxy-2-(tetrahydro-2H-pyran-4-yl)imidazo[1,2-a]pyrimidin-6-yl)picolinamide] |
| 0.008 | 0.028 | CCOc1cc2nc(CC3CCOC3)cn2cc1NC(=O)c1cccn(C)c1=O (stereo not shown) [Example 373, N-(7-ethoxy-2-((tetrahydrofuran-3-yl)methyl)imidazo[1,2-a]pyridin-6-yl)-1-methyl-2-oxo-1,2-dihydropyridine-3-carboxamide] |
| 0.005 | 0.015 | CCOc1cc(NC(=O)c2cccc(C(F)F)n2)cn2cc(C3CCOCC3)nc12 [Example 413, 6-(difluoromethyl)-N-(8-ethoxy-2-(tetrahydro-2H-pyran-4-yl)imidazo[1,2-a]pyridin-6-yl)picolinamide] |
| 0.029 | 0.066 | COc1nc(NC(=O)c2cccc(C(F)(F)F)n2)cn2cc(C3CCOCC3)nc12 [Example 451, N-(8-methoxy-2-(tetrahydro-2H-pyran-4-yl)imidazo[1,2-a]pyrazin-6-yl)-6-(trifluoromethyl)picolinamide 2,2,2-trifluoroacetate] |
| 0.033 | 0.148 | COc1nc(NC(=O)c2ccn(C)n2)cn2cc(C3CCOCC3)nc12 [Example 461, N-(8-methoxy-2-(tetrahydro-2H-pyran-4-yl)imidazo[1,2-a]pyrazin-6-yl)-1-methyl-1H-pyrazole-3-carboxamide Hydrochloride] |
| 0.002 | 0.004 | COc1cc(NC(=O)c2cccc(C(F)F)n2)cn2cc(C3CC4(CCOC4)C3)nc12 (stereo not shown) [Example 507, 6-(difluoromethyl)-N-(8-methoxy-2-(6-oxaspiro[3.4]octan-2-yl)imidazo[1,2-a]pyridin-6-yl)picolinamide] |
| 0.001 | 0.002 | COc1cc(NC(=O)c2cccc(C(F)F)n2)cn2cc(C3CCOC(C)(C)C3)nc12 (stereo not shown) [Example 510, 6-(difluoromethyl)-N-(2-(2,2-dimethyltetrahydro-2H-pyran-4-yl)-8-methoxyimidazo[1,2-a]pyridin-6-yl)picolinamide 2,2,2-trifluoroacetate] |
| 0.007 | 0.034 | CCOc1cc2nc(C3CCOCC3)cn2cc1NC(=O)c1cccc(OCCOC)n1 [Example 516, N-(7-ethoxy-2-(tetrahydro-2H-pyran-4-yl)imidazo[1,2-a]pyridin-6-yl)-6-(2-methoxyethoxy)picolinamide] |
| 0.001 | 0.005 | CCOc1cc2nc(C34CC(C)(C3)C4)cn2cc1NC(=O)c1cccc(C(F)(F)F)n1 [Example 520, N-(7-ethoxy-2-(3-methylbicyclo[1.1.1]pentan-1-yl)imidazo[1,2-a]pyridin-6-yl)-6-(trifluoromethyl)picolinamide 2,2,2-trifluoroacetate] |
| 0.001 | 0.001 | CCOc1cc2nc(C34CC(C#N)(C3)C4)cn2cc1NC(=O)c1cccc(C(F)(F)F)n1 [Example 521, N-(2-(3-cyanobicyclo[1.1.1]pentan-1-yl)-7-ethoxyimidazo[1,2-a]pyridin-6-yl)-6-(trifluoromethyl)picolinamide 2,2,2-trifluoroacetate] |
| 0.001 | 0.002 | CCOc1cc2nc(C34CC(C(F)F)(C3)C4)cn2cc1NC(=O)c1cccc(C(F)(F)F)n1 [Example 522, N-(2-(3-(difluoromethyl)bicyclo[1.1.1]pentan-1-yl)-7-ethoxyimidazo[1,2-a]pyridin-6-yl)-6-(trifluoromethyl)picolinamide 2,2,2-trifluoroacetate] |
